One assay deals with T1, Flag-mUSP18 (Mus musculus, UniProt Q9WTV6).
T1 construct: expressed in transfected cells; host or cells: HEK293T
T1 sequence (Q9WTV6 1-368): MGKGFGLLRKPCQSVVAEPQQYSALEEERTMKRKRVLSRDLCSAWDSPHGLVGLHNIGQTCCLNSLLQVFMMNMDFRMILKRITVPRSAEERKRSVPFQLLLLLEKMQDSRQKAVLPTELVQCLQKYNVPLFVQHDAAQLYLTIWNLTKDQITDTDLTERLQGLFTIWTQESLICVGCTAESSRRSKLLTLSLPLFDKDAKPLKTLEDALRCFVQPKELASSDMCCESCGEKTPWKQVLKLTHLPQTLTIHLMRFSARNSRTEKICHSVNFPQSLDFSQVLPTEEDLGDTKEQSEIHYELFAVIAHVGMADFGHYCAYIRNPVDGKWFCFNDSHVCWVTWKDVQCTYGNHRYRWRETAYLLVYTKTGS
In words: Gel-based ABPP with Rho-mISG15ct-PA probe in HEK293T cells overexpressing Flag-mUSP18. Format: cell-based, murine. The note with it: live HEK293T cells, Flag-mUSP18, 4 h treatment. Here is the method:
To assess the cellular target engagement and cell permeability of these inhibitors, we performed activity‐based protein profiling. […] Following washing and cell lysis, cell extracts were incubated with a Rhodamine‐tagged murine ISG15 C‐terminal domain propargylamide activity‐based probe (Rho‐mISG15ct‐PA), which covalently labels the active site cysteine of active deISGylating enzymes.^[ [41] ^] The labelled enzymes were resolved by SDS‐PAGE and imaged by in‐gel fluorescence, where inhibition of USP18 is reflected by disappearance of the USP18‐probe‐labelled bands around 55 kDa (Figures 6a, S11A). All three inhibitors engaged with cellular mUSP18 in a dose‐dependent manner, with BB07CA902 and BB07CA28 showing efficient inhibition already at 1 µM concentration. […] The in‐cell selectivity of these inhibitors for USP18 over DUBs was confirmed in a similar ABPP experiment using a Rhodamine‐tagged ubiquitin propargylamide probe (Rho‐Ub‐PA),^[ [42] ^] which labels the active site cysteine of all active cysteine DUBs.
Figure 6 Inhibition of murine USP18 activity in living cells. a) Gel‐based ABPP potency assessment using a Rho‐mISG15ct‐PA probe in HEK293T cells overexpressing Flag‐mUSP18. At 24 h following transfection, cells were incubated with DMSO or increasing concentrations of indicated inhibitors for 4 h, lysed, and treated with Rho‐mISG15ct‐PA probe. Top panel: fluorescence scan. Middle panel: anti‐Flag western blot. Bottom panel: anti‐GAPDH western blot confirms equal loading. b) Accumulation of ISGylation in mouse IFN‐β‐stimulated EL4 cells. At 24 h following mouse IFN‐β treatment, cells were incubated with DMSO or increasing concentrations of indicated inhibitors for 4 h, lysed, and treated with Rho‐mISG15ct‐PA probe. […] Middle panel: fluorescence scan. […]
Samples were then diluted 3-fold with water and analyzed by mass spectrometry by injecting 2 μL into a Waters XEVO-G2 XS Q-TOF mass spectrometer equipped with an electrospray ion source in positive mode (capillary voltage 1.2 kV, desolvation gas flow 900 L/h, T = 60 °C) with a resolution of R = 26,000. […]

Assay [1] relates to cellular ISGylation in EL4 cells. The assay can be described thus: ISGylation accumulation in mouse IFN-β-stimulated EL4 cells (anti-mISG15 western blot). Format: cell-based. Conditions: 4 h treatment, anti-mISG15 blot. Here is the method: Figure 6 Inhibition of murine USP18 activity in living cells. a) Gel‐based ABPP potency assessment using a Rho‐mISG15ct‐PA probe in HEK293T cells overexpressing Flag‐mUSP18. At 24 h following transfection, cells were incubated with DMSO or increasing concentrations of indicated inhibitors for 4 h, lysed, and treated with Rho‐mISG15ct‐PA probe. Top panel: fluorescence scan. Middle panel: anti‐Flag western blot. Bottom panel: anti‐GAPDH western blot confirms equal loading. b) Accumulation of ISGylation in mouse IFN‐β‐stimulated EL4 cells. At 24 h following mouse IFN‐β treatment, cells were incubated with DMSO or increasing concentrations of indicated inhibitors for 4 h, lysed, and treated with Rho‐mISG15ct‐PA probe. Top panel: anti‐mISG15 western blot. Middle panel: fluorescence scan. Bottom panel: anti‐β‐actin western blot confirms equal loading.
Ultimately, we were interested in whether USP18 inhibitor treatment could result in a relevant phenotype in cells. USP18 is the major deISGylase to remove ISG15 from target proteins, and genetic inactivation of USP18 isopeptidase activity leads to enhanced ISGylation in vivo and in cells.^[ [26] ^] We therefore examined whether the USP18 inhibitors enhance cellular ISGylation. Accordingly, EL4 cells were stimulated with IFN‐β to induce the ISG15 machinery, prior to treatment with the inhibitors. After cell lysis and SDS‐PAGE, ISGylated proteins were stained by immunoblotting with an ISG15 antibody (Figure 6b, top panel). […] To confirm inhibition of endogenous USP18 in these experiments, samples were post‐lysis treated with Rho‐mISG15ct‐PA probe.
Generation of ISGylation and in-cell inhibition assay
Mouse EL4 cells were stimulated with 300 U/mL mouse IFN-β. At 24 hours following stimulation, cells were incubated with indicated compounds at the indicated final concentrations at 37 °C for 4 hours, then washed twice with PBS and harvested for further […]
Activity-based probe labelling
The in-cell inhibition of DUBs and mUSP18 was assessed using activity-based probe labelling assays. In brief, cell pellets were resuspended in HR buffer (50 mM Tris-HCl, 5 mM MgCl 2, 250 mM sucrose, 2 mM TCEP and a Protease inhibitor tablet (Roche), pH 7.4), and lysed by sonication (Bioruptor, Diagenode, high intensity for 10 minutes with an ON/OFF cycle of 30 seconds) at 4°C. 40 μg clarified cell lysate was incubated with Rhodamine-mISG15ct-propargylamide probe[1] (final concentration 1 μM) or Rhodamine-Ubiquitin-propargylamide probe[13] (final concentration 1 μM) at 37 °C for 30 min. Reactions were stopped by the addition of LDS (lithium dodecyl sulfate) sample buffer (Invitrogen Life Technologies, Carlsbad, CA, USA) containing 2.5% β-mercaptoethanol, followed by boiling for 7 minutes.
SDS-PAGE, in-gel fluorescence scanning, and immunoblotting
Samples were resolved on precast Bis-Tris NuPAGE Gels (Invitrogen, including 4-12%, and 10% for different samples) using MOPS buffer (Invitrogen Life Technologies, Carlsbad, CA, USA). For fluorescence scan, labeled enzymes were visualized by in-gel fluorescence using a Typhoon FLA 9500 imaging system (GE Healthcare Life Sciences) (Rhodamine channel for probe, Cy5 channel for protein marker).
For immunoblotting, proteins were transferred to a nitrocellulose membrane (Protan BA85, 0.45 μm, GE Healthcare) at 300 mA for 3 hours. […]

The next assay concerns the target T2, UCHL1 (Homo sapiens, UniProt P09936).
T2 construct: (1-223); made in house
T2 sequence (P09936 1-223): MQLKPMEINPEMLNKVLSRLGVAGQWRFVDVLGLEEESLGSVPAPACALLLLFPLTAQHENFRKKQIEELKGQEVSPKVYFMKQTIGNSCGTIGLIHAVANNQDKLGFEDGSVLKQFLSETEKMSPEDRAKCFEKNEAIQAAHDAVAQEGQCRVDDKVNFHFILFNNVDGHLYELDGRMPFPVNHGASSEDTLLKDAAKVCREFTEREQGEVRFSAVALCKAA
In words: IC50 determination, fluorogenic Ub-Rho-morpholine activity assay. Format: biochemical. The note with it: after 30 min incubation; purified compound.

For a further assay, the target named is T3, UCHL3 (Homo sapiens, UniProt P15374).
T3 construct: (1-230); made in house
T3 sequence (P15374 1-230): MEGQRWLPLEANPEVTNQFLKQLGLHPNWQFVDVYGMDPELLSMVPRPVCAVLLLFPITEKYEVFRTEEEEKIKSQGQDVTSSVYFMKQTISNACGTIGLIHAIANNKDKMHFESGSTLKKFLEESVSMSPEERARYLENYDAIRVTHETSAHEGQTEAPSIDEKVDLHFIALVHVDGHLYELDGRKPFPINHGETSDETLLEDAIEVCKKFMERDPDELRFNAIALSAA
The assay is described as above. Format: biochemical. The note with it: after 30 min incubation; purified compound.

The next assay has as its target T4, USP7 (Homo sapiens, UniProt Q93009).
T4 construct: (1-1102); GST (cleaved yes); made in house
The assay is described as above. Conditions: after 30 min incubation; purified compound. Format: biochemical.

A further assay addresses T5, mUSP18 (Mus musculus, UniProt Q9WTV6).
T5 construct: (46-368); His-tag (N); made in house
T5 sequence (Q9WTV6 46-368): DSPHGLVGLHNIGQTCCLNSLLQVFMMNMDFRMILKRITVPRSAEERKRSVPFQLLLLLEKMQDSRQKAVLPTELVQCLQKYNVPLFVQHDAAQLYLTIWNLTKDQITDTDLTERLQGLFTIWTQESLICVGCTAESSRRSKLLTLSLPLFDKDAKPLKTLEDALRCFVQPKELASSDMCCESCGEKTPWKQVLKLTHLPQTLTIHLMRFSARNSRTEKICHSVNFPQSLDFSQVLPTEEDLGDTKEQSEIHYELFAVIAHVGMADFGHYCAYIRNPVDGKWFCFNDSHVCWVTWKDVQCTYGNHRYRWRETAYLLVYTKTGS
The assay can be described thus: IC50 determination, fluorogenic ISG15CT-Rho-morpholine activity assay. The note with it: after 30 min incubation; purified compound; ISG15CT-Rho-morpholine substrate. Format: biochemical, murine.

The target of another assay is T6, USP32 (Homo sapiens, UniProt Q8NFA0).
T6 construct: (1-1604); His-tag (N); made in house
In words: IC50 determination, fluorogenic Ub-Rho-morpholine activity assay. Format: biochemical. The note with it: after 30 min incubation; purified compound.

The next assay addresses USP16 (Homo sapiens, UniProt Q9Y5T5). The assay can be described thus: biochemical.
In the next assay the target is T7, USP30 (Homo sapiens, UniProt Q70CQ3).
T7 sequence (Q70CQ3 57-517): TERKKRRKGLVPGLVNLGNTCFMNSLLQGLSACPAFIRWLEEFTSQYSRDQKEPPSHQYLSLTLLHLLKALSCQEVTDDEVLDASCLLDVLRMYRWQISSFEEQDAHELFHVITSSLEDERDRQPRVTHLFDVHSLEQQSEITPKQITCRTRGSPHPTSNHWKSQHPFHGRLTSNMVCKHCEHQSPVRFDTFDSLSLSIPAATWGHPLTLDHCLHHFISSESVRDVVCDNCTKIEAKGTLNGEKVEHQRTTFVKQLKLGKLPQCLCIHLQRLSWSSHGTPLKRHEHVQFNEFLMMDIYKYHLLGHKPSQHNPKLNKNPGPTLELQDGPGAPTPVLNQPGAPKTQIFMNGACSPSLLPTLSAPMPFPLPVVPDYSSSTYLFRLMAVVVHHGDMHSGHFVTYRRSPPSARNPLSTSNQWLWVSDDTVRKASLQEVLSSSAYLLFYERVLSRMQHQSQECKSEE
The assay can be described thus: biochemical.

T6 sequence (Q8NFA0 whole entry): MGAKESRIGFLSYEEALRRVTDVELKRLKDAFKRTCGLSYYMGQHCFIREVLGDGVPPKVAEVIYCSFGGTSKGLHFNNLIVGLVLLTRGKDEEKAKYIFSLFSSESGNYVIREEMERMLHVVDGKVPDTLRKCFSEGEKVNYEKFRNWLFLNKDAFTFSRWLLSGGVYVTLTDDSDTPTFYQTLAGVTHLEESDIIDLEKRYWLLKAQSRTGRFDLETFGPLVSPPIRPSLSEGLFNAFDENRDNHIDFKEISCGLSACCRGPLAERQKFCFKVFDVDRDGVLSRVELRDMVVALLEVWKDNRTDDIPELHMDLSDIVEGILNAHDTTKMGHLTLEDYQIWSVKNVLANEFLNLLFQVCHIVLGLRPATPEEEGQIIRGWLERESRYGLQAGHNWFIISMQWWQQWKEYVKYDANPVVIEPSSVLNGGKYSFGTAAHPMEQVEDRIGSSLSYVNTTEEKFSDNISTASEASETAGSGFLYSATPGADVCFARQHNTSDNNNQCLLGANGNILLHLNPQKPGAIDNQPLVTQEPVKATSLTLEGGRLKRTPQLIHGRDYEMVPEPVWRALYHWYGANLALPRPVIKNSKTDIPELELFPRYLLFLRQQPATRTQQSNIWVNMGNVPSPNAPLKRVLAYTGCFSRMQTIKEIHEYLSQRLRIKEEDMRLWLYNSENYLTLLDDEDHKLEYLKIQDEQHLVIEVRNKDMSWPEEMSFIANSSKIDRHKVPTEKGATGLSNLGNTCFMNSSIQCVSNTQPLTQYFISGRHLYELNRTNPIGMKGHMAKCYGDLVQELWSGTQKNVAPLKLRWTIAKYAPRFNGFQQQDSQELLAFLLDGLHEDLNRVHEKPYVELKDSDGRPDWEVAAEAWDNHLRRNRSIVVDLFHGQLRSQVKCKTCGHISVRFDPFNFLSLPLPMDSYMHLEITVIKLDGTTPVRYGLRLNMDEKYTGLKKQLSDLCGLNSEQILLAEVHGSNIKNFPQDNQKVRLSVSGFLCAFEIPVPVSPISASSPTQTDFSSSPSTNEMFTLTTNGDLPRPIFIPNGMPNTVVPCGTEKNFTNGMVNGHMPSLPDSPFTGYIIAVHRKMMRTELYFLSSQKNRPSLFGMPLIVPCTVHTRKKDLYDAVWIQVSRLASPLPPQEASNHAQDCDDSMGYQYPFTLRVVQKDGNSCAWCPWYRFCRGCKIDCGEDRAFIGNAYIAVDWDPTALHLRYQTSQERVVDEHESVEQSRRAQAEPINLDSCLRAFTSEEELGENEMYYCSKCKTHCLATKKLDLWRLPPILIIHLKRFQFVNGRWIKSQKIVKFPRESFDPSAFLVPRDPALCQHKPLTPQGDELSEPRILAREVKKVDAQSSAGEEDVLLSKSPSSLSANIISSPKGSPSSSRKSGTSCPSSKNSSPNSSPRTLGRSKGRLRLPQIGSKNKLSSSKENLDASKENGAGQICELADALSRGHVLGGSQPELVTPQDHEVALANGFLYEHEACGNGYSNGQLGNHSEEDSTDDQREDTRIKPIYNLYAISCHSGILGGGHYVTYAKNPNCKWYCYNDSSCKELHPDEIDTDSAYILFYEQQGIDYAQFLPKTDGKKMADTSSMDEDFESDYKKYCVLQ
T4 sequence (Q93009 whole entry): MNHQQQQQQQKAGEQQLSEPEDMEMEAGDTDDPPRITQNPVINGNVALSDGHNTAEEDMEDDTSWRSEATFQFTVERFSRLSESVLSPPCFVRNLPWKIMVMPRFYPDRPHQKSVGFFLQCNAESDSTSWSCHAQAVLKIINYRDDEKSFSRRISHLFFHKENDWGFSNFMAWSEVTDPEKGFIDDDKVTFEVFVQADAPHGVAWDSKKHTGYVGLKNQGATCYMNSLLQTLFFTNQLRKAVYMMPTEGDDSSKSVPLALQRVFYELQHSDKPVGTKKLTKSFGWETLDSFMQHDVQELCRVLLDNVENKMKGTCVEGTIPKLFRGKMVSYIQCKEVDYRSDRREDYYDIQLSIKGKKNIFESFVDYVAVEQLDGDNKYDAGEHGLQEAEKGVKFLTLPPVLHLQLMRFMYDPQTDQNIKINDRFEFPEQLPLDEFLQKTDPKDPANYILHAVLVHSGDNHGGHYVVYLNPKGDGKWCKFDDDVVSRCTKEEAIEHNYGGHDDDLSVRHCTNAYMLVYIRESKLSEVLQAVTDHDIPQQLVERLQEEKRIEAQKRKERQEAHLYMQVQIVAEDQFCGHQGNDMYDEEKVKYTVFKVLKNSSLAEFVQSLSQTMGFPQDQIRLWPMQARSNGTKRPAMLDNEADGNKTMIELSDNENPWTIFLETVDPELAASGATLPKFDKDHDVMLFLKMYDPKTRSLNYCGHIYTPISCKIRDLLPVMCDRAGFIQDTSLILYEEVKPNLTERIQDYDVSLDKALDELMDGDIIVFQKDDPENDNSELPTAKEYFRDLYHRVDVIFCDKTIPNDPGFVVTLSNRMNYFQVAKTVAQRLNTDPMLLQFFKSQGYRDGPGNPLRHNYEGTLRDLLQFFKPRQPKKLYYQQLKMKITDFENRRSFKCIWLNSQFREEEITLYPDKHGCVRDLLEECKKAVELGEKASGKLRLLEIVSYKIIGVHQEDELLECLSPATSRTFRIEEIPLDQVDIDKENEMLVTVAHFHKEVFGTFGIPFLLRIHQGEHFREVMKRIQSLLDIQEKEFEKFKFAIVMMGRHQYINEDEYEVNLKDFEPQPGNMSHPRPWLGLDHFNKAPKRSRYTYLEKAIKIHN
USP16, sequence (Q9Y5T5 22-823): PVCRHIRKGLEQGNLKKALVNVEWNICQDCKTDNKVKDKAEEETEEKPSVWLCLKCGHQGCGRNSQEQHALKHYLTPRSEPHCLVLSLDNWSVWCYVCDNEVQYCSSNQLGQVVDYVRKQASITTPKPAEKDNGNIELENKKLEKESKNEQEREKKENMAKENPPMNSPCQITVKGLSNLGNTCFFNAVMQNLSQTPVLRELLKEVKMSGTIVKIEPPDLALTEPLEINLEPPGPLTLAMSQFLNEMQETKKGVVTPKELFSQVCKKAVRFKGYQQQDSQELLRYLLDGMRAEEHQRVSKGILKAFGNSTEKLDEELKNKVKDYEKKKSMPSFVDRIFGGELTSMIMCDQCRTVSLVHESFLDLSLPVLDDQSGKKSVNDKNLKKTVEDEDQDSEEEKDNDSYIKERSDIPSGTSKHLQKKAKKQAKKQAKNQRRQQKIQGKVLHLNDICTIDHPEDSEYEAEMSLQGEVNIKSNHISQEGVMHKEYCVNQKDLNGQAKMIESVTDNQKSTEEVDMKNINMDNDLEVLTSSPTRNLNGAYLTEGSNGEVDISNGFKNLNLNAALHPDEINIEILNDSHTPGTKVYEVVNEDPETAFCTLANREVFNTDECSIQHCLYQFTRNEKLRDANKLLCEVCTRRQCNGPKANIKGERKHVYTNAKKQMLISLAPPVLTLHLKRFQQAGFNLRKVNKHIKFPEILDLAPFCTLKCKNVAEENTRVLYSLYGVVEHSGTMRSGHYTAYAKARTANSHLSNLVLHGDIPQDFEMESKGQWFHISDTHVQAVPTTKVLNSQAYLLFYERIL
Method for USP16: This panel included five proteases from the USP family, two from the UCH family, and one OTU. The IC50 values were determined in a well‐established biochemical activity assay using the fluorogenic substrate Ub‐Rho‐morpholine.^[ [33] ^]
(§1) Enzymes were pre-incubated with a concentration series of the compounds for 30 minutes at
(§2) room temperature, before addition of the substrate and direct read-out by fluorescence
(§3) intensity. Data is presented as mean ± SD, n=3.
USP16 Full length N-terminal His-tag Q9Y5T5 In-house, [Mons, 2 nM
IC50 and kinact/KI determination
(§4) The assays were performed at room temperature in “nonbinding surface flat bottom low flange”
(§5) TrisꞏHCl, 100 mM NaCl, pH 7.6, 2.0 mM cysteine, 1 mg/mL 3-[(3-cholamidopropyl)-
(§6) dimethylammonio]propanesulfonic acid (CHAPS), and 0.5 mg/mL γ-globulins from bovine
(§7) blood (BGG). […] The compounds were dissolved in 10
(§8) mM DMSO stocks, and appropriate volumes were transferred to the empty plates using a
(§9) Labcyte Echo550 acoustic dispenser. A DMSO back-fill was performed to obtain equal volumes of DMSO (400 μL) in each well. N-ethylmaleimide (NEM, 10 mM) was used a positive
(§10) steps were performed on a Biotek MultiflowFX liquid dispenser. A 10 μL portion of buffer was added and the plate was vigorously shaken for 20s. Next, 5 μL of recombinant enzyme (4x final concentration) was added followed by incubation for 1h. A 5 μL portion of the substrate
(§11) (Ub-RhoMP[2] for all DUBs, ISG15ct-RhoMP (vide supra) for USP18 and Z-FR-AMC [Bachem,
(§12) RhoMP, 10 µM for Z-FR-AMC), and the increase in fluorescence over time was recorded using
(§13) excitation 360 nm, emission 450 nm for AMC). The initial enzyme velocities were calculated
(§14) from the slopes, normalized to the positive and negative controls, and plotted against the
(§15) inhibitor concentrations using the built-in equation “[inhibitor] vs response − variable slope
(§16) (four parameters), least-squares fit” with constraints “Bottom = 0” and “Top = 100” in GraphPad
(§17) Prism 7 software to obtain the IC50 values.
(§18) All data fitting and calculations were done using GraphPad Prism 7 software.
Method for USP30: This panel included five proteases from the USP family, two from the UCH family, and one OTU. The IC50 values were determined in a well‐established biochemical activity assay using the fluorogenic substrate Ub‐Rho‐morpholine.^[ [33] ^] For USP18, which is unreactive to Ub but specific for ISG15, we used the ISG15CT‐Rho‐morpholine (consisting of the C‐terminal domain of ISG15) substrate to monitor its activity (see Supporting Information for preparation of this substrate).
as §1, §2, §3
room temperature, followed by the addition of substrate and direct read-out by fluorescence
IC50 and kinact/KI determination
as §4, §5, §6, §7, §8, §9, §10, §11, §12, §13, §14, §15, §16, §17, §18

Take `Cc1cc(C(=O)N[C@@H]2C[C@@H]3CN(C#N)C[C@@H]3C2)ccc1C(C)C` [BB06CA902]: the “concentration at which inhibition of mUSP18 probe labelling is observed” value at Flag-mUSP18 was found to be 100 µM. The “effect on cellular ISGylation” value in assay [1] is given as “hardly affected ISGylation”.
Take `COc1ccccc1-c1cc(C(=O)N[C@@H]2CCN(C#N)C2)n[nH]1` [Compound 2]: the IC50 against UCHL1 amounted to 110 µM; against UCHL3 it was 168 µM; against USP7 it was 52 µM; at mUSP18, 0.029 µM; at USP32, 0.072 µM; against USP16, 22.6 µM. This compound had an IC50 against USP30 of 0.059 µM.
Take `N#CN1CC[C@@H](NC(=O)c2ccc(N3CCCC3)cc2F)C1` [Compound 3]: the IC50 is > 200 µM at UCHL1; > 200 µM on UCHL3; 171 µM against USP7; 5.5 µM on mUSP18; 59 µM at USP32; > 200 µM on USP16. This compound came in with an IC50 against USP30 of 2.4 µM.
`N#CN1CC[C@@H](NC(=O)c2ccc(F)c(F)c2)C1` [Compound 4]: the IC50 at UCHL1 was > 200 µM; at UCHL3 it was > 200 µM; on USP7, 210 µM; at mUSP18 it was 9.8 µM; on USP32 it was 184 µM; at USP16 it was 262 µM. Also, the midpoint of inhibition on USP30, the IC50, lay at 0.89 µM.

What is called IC50 is the midpoint of a concentration-inhibition curve. A lower IC50 goes with higher potency.

Source of the values: paper PMC12668310, “High‐Throughput Synthesis and Screening of a Cyanimide Library Identifies Selective Inhibitors of ISG15‐Specific Protease mUSP18” (Angewandte Chemie (International Ed. in English), 2025).
